Values of other authors, collected in PMC12042267, “Expanding the Family of Monosubstituted 15-Membered Pyridine-Based Macrocyclic Ligands for Mn(II) Complexation in the Context of MRI” (Inorganic Chemistry, 2025).
Where two headings read alike, the source gives them in different places. Marks after values point to notes of the source that are not given here.

How the values were obtained:
[1] = cited from earlier work
[2] = cited from earlier work; for r1p298: determined at pH 7.4 ref 20; for r1 (relaxivity): 25 °C, 20 MHz
[3] = I = 0.15 M NaCl, cited from earlier work
[4] = Ca(II), I = 0.15 M NaCl, cited from earlier work
[5] = Cu(II), I = 0.15 M NaCl, cited from earlier work
[6] = Zn(II), I = 0.15 M NaCl, cited from earlier work
[7] = Mn(II) complex, cited from earlier work; for dissociation half-life t1/2: calculated for pH 7.4
[8] = cited from earlier work; remark: listed apart in the source
[9] = Mn(II), I = 0.15 M NaCl, 25 °C ref 26
[10] = Mn(II), I = 0.15 M NaCl, 25 °C ref 29
[11] = Mn(II), I = 0.15 M NaCl, 25 °C ref 22

In the case of `O.O=P([O-])([O-])CN1CCNCc2cccc(n2)CNCC1.[Mn+2]` [[Mn(PC1P)(H2O)]], the “kex^298” value [1] is given as 177 ± 9 10^7 s^–1, the “ΔH^‡” value [1] is given as 14.0 ± 1.2 kJ mol^–1 and the r1p298 [2] is given as 2.84 mM^–1 s^–1.
For `O=C(O)CN1CCOCCN(CC(=O)O)Cc2cccc(n2)C1` [3,9-OPC2A], the “log K1^H” value ([3]; 25 °C ref 26) is given as 7.73, the “log K2^H” value ([3]; 25 °C ref 26) is given as 7.66 and the “log K3^H” value ([3]; 25 °C ref 26) is given as 2.13. The “log KML” value ([4]; 25 °C ref 26) was 8.27, the “log KHML” value ([5]; 25 °C ref 26) was 1.92 and the “log KML” value ([5]; 25 °C ref 26) was 18.41. For the same molecule, the “log KML(OH)” value ([5]; 25 °C ref 26) was -10.50, the “log KHML” value ([6]; 25 °C ref 26) was 2.08 and the “log KML” value ([6]; 25 °C ref 26) was 14.81. For the same molecule, the “log KML(OH)” value ([6]; 25 °C ref 26) was -10.95, the k0 ([7]; Cu(II) transmetalation ref 26) was “(8.6 ± 1.1) × 10^–6 s^–1” and the k1 ([7]; Cu(II) transmetalation ref 26) was 2.81 ± 0.07 M^–1 s^–1. For the same molecule, the “dissociation half-life t1/2” value ([7]; Cu(II) ref 26) was 0.912 days, the “log KML” value [8, 9] was 13.03 and the “log KML(OH)” value [8, 9] was -11.49. The pMn ([8]; pH 7.4, cMn = clig = 10^–5 M ref 26) was 8.69.
For `c1cc2nc(c1)CNCCOc1ccccc1OCCNC2` [15-pyN3O2Ph], the “log K1^H” value ([3]; 25 °C ref 29) is listed as 8.53, the “log K2^H” value ([3]; 25 °C ref 29) is listed as 7.63 and the “log KML” value ([4]; 25 °C ref 29) is listed as 1.85. The “log KML” value ([5]; 25 °C ref 29) was 13.97, the “log KML(OH)” value ([5]; 25 °C ref 29) was -8.95 and the “log KML” value ([6]; 25 °C ref 29) was 7.70. The “log KML(OH)” value ([6]; 25 °C ref 29) was -9.62, the “log KML” value [8, 10] was 5.62 and the “log KML(OH)” value [8, 10] was -10.50. For the same molecule, the pMn ([8]; pH 7.4, cMn = clig = 10^–5 M ref 30) was 5.04^a.
For `O.O=C([O-])CN1CCNCc2cccc(n2)CNCC1.[Mn+2]` [[Mn(PC1A)(H2O)]^+], the “kex^298” value [1] is listed as 303 ± 19 10^7 s^–1, the “ΔH^‡” value [1] is listed as 13.0 ± 1.6 kJ mol^–1 and the r1p298 [2] is listed as 2.39 mM^–1 s^–1.
For `O.O.[Mn+2].c1cc2nc(c1)CNCCNCCNCCNC2` [Mn(15-pyN5)], the “kex^298” value [1] is listed as 6.9 ± 0.7 10^7 s^–1, the “ΔH^‡” value [1] is listed as 37.7 ± 4 kJ mol^–1 and the “r1 (relaxivity)” value ([2]; 0.47 T ref 28) is listed as 3.56 mM^–1 s^–1.
For `O.O.O.O.O.O.[Mn+2]` [[Mn(H2O)6]^2+], the AO/ℏ [1] is given as 33.3 10^6 rad s^–1, the “kex^298” value [1] is given as 2.1 10^7 s^–1 and the “ΔH^‡” value [1] is given as 32.9 kJ mol^–1. The “ΔS^‡” value [1] was “+5.7 J mol^–1K^–1”, the “Δ^2” value [1] was 5.6 10^18 s^–2 and the “τrH^298” value [1] was 30 ps. For the same molecule, the “τv^298” value [1] was 3.3 ps, the “r1 characteristic of free hexaaqua Mn(II)” value ([2]; 1.41 T, 60 MHz, 25 °C ref 46) was 6.7 mM^–1 s^–1 and the “r1 (relaxivity)” value ([2]; 0.47 T ref 54) was 8.36/– mM^–1 s^–1.
For `O.O.[Mn+2].c1cc2nc(c1)CNCCOc1ccccc1OCCNC2` [Mn(15-pyN3O2Ph)], the AO/ℏ [1] is given as 43 10^6 rad s^–1, the “kex^298” value [1] is given as 0.64 10^7 s^–1 and the “ΔH^‡” value [1] is given as 34.0 kJ mol^–1. For the same molecule, the “ΔS^‡” value [1] was “–1.0 J mol^–1K^–1” and the “r1 (relaxivity)” value ([2]; 0.47 T ref 29) was 5.16/– mM^–1 s^–1.
In the case of `NCCN1CCN(CC(=O)O)Cc2cccc(n2)CN(CC(=O)O)CC1` [PC2A-EA], the “log K1^H” value ([3]; 25 °C ref 22) is given as 11.34, the “log K2^H” value ([3]; 25 °C ref 22) is given as 8.93 and the “log K3^H” value ([3]; 25 °C ref 22) is given as 6.91. The “log K4^H” value ([3]; 25 °C ref 22) was 1.97, the k1 ([7]; Cu(II) transmetalation ref 22) was 0.6 M^–1 s^–1 and the “dissociation half-life t1/2” value ([7]; Cu(II) ref 22) was 333 days. For the same molecule, the “log KH2ML” value [8, 11] was 2.50, the “log KML” value [8, 11] was 19.01 and the “log KHML” value ([8]; Mn(II), I = 0.15 M NaCl, 25 °C, log KMnHL in Table 5 ref 22) was 6.88. The pMn ([8]; pH 7.4, cMn = clig = 10^–5 M ref 22) was 9.27.
